Consider eleven compounds from patent US5922775A, “Method of treating malignant tumors with ketone thyroxine analogues having no significant hormonal activity” (priority 1997, dated 1999).

One series concerns human cancer cells. To be noted: cited from earlier work; for cytostatic / cytocidal activity: cellular assays and in vivo.
For series [1], the system named is microtubule protein (MTP). The series can be described thus: Microtubule assembly (MTP polymerization) in vitro, optical test at 350 nm. Type of series: biochemical, bovine or rabbit (brain). The following applies: for Percent inhibition of intitial velocity (microtubule assembly in vitro): 10 μM drug, GTP 1 mM, 37° C., averages of duplicate assay; for effect of substitution on inhibition of MTP polymerization: compared with DIME; for inhibitory action on MTP assembly (comparison, FIG. 2): drug concentrations up to 20 μM; for order of potency on MTP assembly (FIG. 3): zero to 10 μM drug, lowered GTP concentration (10 μM). The text has this:
This inhibition is critically dependent on the concentration of GTP. The quantitative correlation between the concentrations of DIME and GTP, under conditions of a linear rate of MTP polymerization, follows Michaelis-Menten kinetics and the inhibition portrays a "mixed" type, where km for GTP and Vmax are altered simultaneously. Chemical analogues of DIME inhibit MTP polymerization parallel to their antitumorigenic action in vivo. The MTP site is one of the early cellular response sites of DIME.
J. Oncol. Abnormal spindle structures could be the result of DIME-MTP interaction or reactions of DIME with components of the microtubule organizing center or with as yet undefined systems sequentially or in concert. Since time-dependent quantitative analysis of the MTP system in situ is unsuitable for initial velocity measurement we adapted the in vitro assembly system of neurotubules as a model for a quantitative analysis of the interaction of DIME with MTP. […] The time course of MTP assembly consists of initiation and propagation and termination steps, Gaskin, et al., 1974, "Turbidimetric studies of the in vitro assembly and disassembly of porcine neurotubules", J. Mol. Biol. 89:737-758. The rate of propagation under defined conditions is sufficiently linear to permit kinetic analysis, that can be evaluated with respect DIME and GTP concentrations. As we show here the inhibition of MTP assembly by DIME occurs in the same range of drug concentration as required to inhibit tumorigonesis in vivo, or to inhibit cell replication or induce eventual cell death; Mendeleyev, et al., 1997. "Structural specificity and tumoricidal action of methyl-3,5-diiodo-4-(4'-methoxyphenoxy)benzoate (DIME)" Int. J. Oncol., 10:689-695. Therefore the DIME-MTP interaction is most probably a component of the apparently pleiotropic cellular mechanism of action of DIME.
Preparation of MTP and an optical test for polymerization was adopted from published methods, Gaskin, et al., 1974, "Turbidimetric studies of the in vitro assembly and disassembly of porcine neurotubules", J. Mol. Biol. 89:737-758; Tiwari, et al., 1993, "A pH and temperature-dependent cycling method that doubles the yield of microtubule protein", Anal. Biochem. 215:96-103. Bovine or rabbit brain was homogenized in an equal volume of ice cold buffer containing 100 mM Pipes/K^+ (pH 7.4), 4 mM EGTA. 1 mM MgCl2, 0.5 mM DTT and 0.1 mM PMSF, and centrifuged at 39,000 g for 1 hour at 4° C. To the supernatant, DMSO (8% final concentration) and GTP (1 mM final concentration) were added, followed by incubation at 37° C. for 30 minutes. Microtubules were pelleted at 100,000 g at 37° C. for 30 minutes. The pellets were incubated on ice for 15 minutes, followed by resuspension in ice cold PEM buffer (100 mM Pipes/K+ (pH 6.9), 1 mM EGTA, 1 mM MgCl2). This warm polymerization and cold depolymerization cycle was repeated once more and the cold, resuspended monomeric MTP (8-10 mg/ml protein) was used for the optical test for polymerization kinetics. Both rabbit or bovine brain yielded identical MTP preparations.
The polymerization reaction was started by the addition of […] of MTP solution (equivalent to 0.8-1.0 mg protein) and initial linear rates of increase in absorbance at 350 nm followed and recorded at 37° C. in a Perkin-Elmer 552 double beam spectrophotometer, equipped with a thermostatically controlled cuvette holder.
It is apparent that the rate of MTP polymerization proceeds in a linear manner, thus conditions for maximal polymerization rates as defined by Berne, B, 1974, "Interpretation of light scattering from long rods", J. Mol. Biol. 89:755-758 appear fulfilled. Therefore it is possible to determine the quantitative correlation between [DIME] and [GTP] by comparing the linear rate in the presence of varying drug and activator concentrations.
The assay system consisted of 240 μl of PEM buffer containing 8% DMSO […]
(added in 3 μl), or solvent control and 0.6 mg MTP (60 μl). […]

Another series concerns E-ras 20 cells. To be noted: carboxylic acid vs methyl ester; cited from earlier work.
The test system of series [2] is human lung cancer cells (A 549). The series can be described thus: Growth of human lung cancer cells (Table 2 B). Type of series: cell-based. An excerpt:
(§1) The effects of these three substances on the growth of human mammary cancer cells (MDA-MB-231) and human lung cancer cells (A 549) are summarized in Table 2.
(§2) (×10^3) Cell number per 2 cm^2

The test system of the next series is mammary cancer cells. The series can be described thus: Colony formation by mammary cancer cells (FIG. 1). Format: cell-based, human. To be noted: DIME vs DIPE. The text has this: FIG. 1 is a graph illustrating the cell killing effects of DIME and DIPE on mammary cancer colonies;
The effect of DIME and DIPE on colony formation by mammary cancer cells is illustrated in FIG. 1, where the results are superimposable, confirming that cytocidal action of DIME and DIPE are indistinguishable.

Series [3] relates to human mammary cancer cells (MDA-MB-231). The series is described as follows: Growth of human mammary cancer cells (Table 2 A). Type of series: cell-based. To be noted: 2 μM.
Text: as §1
In section (a) of Table 2 the effects of DIME, DIPE and DIPP on the growth of mammary cancer cells, assayed at 48 and 72 hrs, is shown. […] The slightly lesser efficacy of DIPP could be predicted from earlier results obtained with DIME analogs (International Journal of Oncology, 1997, 10, 689-695, FIG. 1) where we have shown that extending the methyl to ethyl substitution (on the carboxyl ester) diminishes cytotoxicity against tumor cells. A similar phenomenon occurs when DIPE is extended to DIPP (i.e. from the ethanone to the propanone).
as §2

The subject of another series is cellular esterases. The series is described as follows: Stability against cellular esterases. The text has this: Moreover, amide analogs of DIME, having an NH2 or a substituted amino group, may be subject to hydrolysis catalyzed by cellular amidases. Since the hydrolysis product of such a hydrolysis is a carboxylic acid, the same decrease in efficacy can result. In order to decrease the chemical lability in the DIME pharmacophore structure, ketone analogues of DIME may be used.
A more detailed kinetic comparison of DIME, DIPE and DIPP on the kinetics of MTP assembly, in a concentration range of zero to 10 μM drug and a louvered GTP concentration (10 μM), is shown in FIG. 3.

A further series has as its system thyroid iodine uptake. The following applies: rat, in vivo; cited from earlier work.
A further series relates to Rana pipiens tadpoles. The following applies: tadpole metamorphosis; cited from earlier work.
The subject of series [4] is non-malignant mouse pituitary adenoma. The following applies: cited from earlier work.

Regarding `COC(=O)c1cc(I)c(Oc2ccc(OC)cc2Cl)c(I)c1` [2'-chloro analogue of DIME], in the series on human cancer cells (human cancer cells), the “maximal inhibitory action on growth as compared to DIME” value is “about 25%”.
Take `CCCOc1ccc(Oc2c(I)cc(C(=O)OC)cc2I)cc1` [4'-propoxy homologue]: the “cytostatic / cytocidal activity” value in the series with human cancer cells was “completely inactive”.
Turning to `CCOc1ccc(Oc2c(I)cc(C(=O)OC)cc2I)cc1` [Compound 2], in [1], the “Percent inhibition of intitial velocity (microtubule assembly in vitro)” value (from here on “Percent inhibition of intitial velocity”) was 76% and the “effect of substitution on inhibition of MTP polymerization” value is on record as “progressively diminishes inhibition of MTP polymerization”. Moreover, the “maximal cytocidal action as compared to DIME” value in the series on human cancer cells (human cancer cells) is 25-30%.
As to `CCCCOc1ccc(Oc2c(I)cc(C(=O)OC)cc2I)cc1` [Compound 4], in series [1], the “Percent inhibition of intitial velocity” value was 8% and the “effect of substitution on inhibition of MTP polymerization” value was “progressively diminishes inhibition of MTP polymerization”.
As to `CCOC(=O)c1cc(I)c(Oc2ccc(OC)cc2)c(I)c1` [Compound 5], the “Percent inhibition of intitial velocity” value in series [1] amounted to 35%. The “cytostatic / cytocidal activity” value in the series with human cancer cells is “completely inactive”.
On to `COc1ccc(Oc2c(I)cc(C(=O)O)cc2I)cc1` [Compound 6], for which, in series [1], the “Percent inhibition of intitial velocity” value was found to be 0% and the “effect of substitution on inhibition of MTP polymerization” value is recorded as “completely abolishes the inhibitory effect on MTP polymerization”. Further, in the series on human cancer cells (carboxylic acid from hydrolysis of the ester), the “efficacy against tumor cells relative to ester” value is “much less efficacy against tumor cells than the ester”. Also, in the series with E-ras 20 cells, the antitumorigenic action result is on record as “only halves the antitumorigenic action”.
`COc1ccc(Oc2c(I)cc(C(N)=O)cc2I)cc1` [Compound 7]: in series [1], the “Percent inhibition of intitial velocity” value is 43%.
Take `COc1ccc(Oc2c(I)cc(C(=O)N(C)C)cc2I)cc1` [Compound 9]: the “Percent inhibition of intitial velocity” value in [1] was 6%.
As for `COc1ccc(Oc2c(I)cc(C(C)=O)cc2I)cc1` [DIPE, 1-[3,5-diiodo-4-(4'-methoxyphenoxy)-phenyl]-ethanone], the “inhibitory action on MTP assembly (comparison, FIG. 2)” value in series [1] is recorded as “similar”. In [1], the “order of potency on MTP assembly (FIG. 3)” value is listed as “DIME>DIPE>DIPP”. For the same compound, the Cell number is 78 ×10^3 cell number per 2 cm^2 w in [2] (2 μM, 48 hours, control 110); 81 ×10^3 cell number per 2 cm^2 w in series [2] (2 μM, 72 hours, control 190); 37 ×10^3 cell number per 2 cm^2 w in series [2] (5 μM + BNPP 150 μM (esterase inhibitor), 48 hours, control 110); 38 ×10^3 cell number per 2 cm^2 w in [2] (5 μM + BNPP 150 μM (esterase inhibitor), 72 hours, control 190); 38 ×10^3 cell number per 2 cm^2 w in [2] (5 μM, 48 hours, control 110); 40 ×10^3 cell number per 2 cm^2 w in series [2] (5 μM, 72 hours, control 190). Moreover, the Cell number is recorded as 55 ×10^3 cell number per 2 cm^2 w in series [3] (48 hours, control 150) and 60 ×10^3 cell number per 2 cm^2 w in series [3] (72 hours, control 300). In addition, in [2] (lung cancer cells, with BNPP), the “effect of esterase inhibitor BNPP on cytocidal action” value was “no supportive effect”. For the same compound, the “effect on colony formation (FIG. 1)” value with mammary cancer cells is given as “superimposable”. Moreover, the stability against esterases result in the series on cellular esterases is reported as “absence of esterase action”.
Turning to `CCC(=O)c1cc(I)c(Oc2ccc(OC)cc2)c(I)c1` [DIPP, 1-[3,5-diiodo-4-(4'-methoxyphenoxy)-phenyl]-1-propanone], the “inhibitory action on MTP assembly (comparison, FIG. 2)” value in series [1] is listed as “similar”. Also, the “order of potency on MTP assembly (FIG. 3)” value in [1] is “DIME>DIPE>DIPP”. Also, the Cell number is 90 ×10^3 cell number per 2 cm^2 w in series [3] (48 hours, control 150) and 145 ×10^3 cell number per 2 cm^2 w in series [3] (72 hours, control 300). The “effectiveness relative to DIME and DIPE” value in [3] (72 hrs) was “about one half as effective as the other two drugs”.
Regarding `NC(Cc1cc(I)c(Oc2cc(I)c(O)c(I)c2)c(I)c1)C(=O)O` (stereo not drawn) [thyroxine], the “suppression of uptake of iodine by the thyroid” value in the series with thyroid iodine uptake is reported as “suppresses uptake of iodine by the thyroid”. For the same compound, in the series on Rana pipiens tadpoles, the “cell differentiating / metamorphogenic activity” value is on record as “induces cell differentiation”. Moreover, the “inhibition of growth of non-malignant pituitary tumor” value in series [4] is “depress growth of non-malignant mouse pituitary thyrotropic tumors”.
